Measurements: US4358440A, “Polypeptide and its production and use” (Takeda Chemical Industries, Ltd., priority 1980, dated 1982)
Like-named read-outs stand apart in the source and are kept apart here. Residues, ends and D or L forms follow the SMILES beside them.

Assays:
opiate receptor (brain) = assay: binding strength with the opiate receptor (brain); conditions: for binding strength with the opiate receptor (brain) relative to human beta-endorphin: times greater than human beta-endorphin; for binding activity relative to morphine: times greater than morphine
Description: The above experiment was carried out by the procedure as described in The Journal of Biological Chemistry, Vol. 254, No. 8, p. 2610 (1979).

[1] = analgesic action of the novel peptide; conditions: result in words; no test described
[2] = result in words
[3] = rats, intracerebral route; cited from earlier work
[4] = mice, intracerebral route; cited from earlier work

CC[C@H](C)[C@H](NC(=O)[C@H](Cc1c[nH]cn1)NC(=O)[C@H](CCCCN)NC(=O)[C@H](CC(C)C)NC(=O)[C@H](CC(C)C)NC(=O)[C@@H](NC(=O)[C@@H](NC(=O)[C@H](CC(C)C)NC(=O)[C@@H]1CCCN1C(=O)[C@H](CCCCN)NC(=O)[C@H](Cc1c[nH]cn1)NC(=O)[C@H](CO)NC(=O)[C@H](CCC(N)=O)NC(=O)[C@H](CCCCN)NC(=O)[C@@H](NC(=O)[C@H](Cc1ccc(O)cc1)NC(=O)[C@@H]1CCCN1C(=O)[C@H](CCCCN)NC(=O)[C@H](CCSC)NC(=O)[C@H](Cc1ccccc1)NC(=O)CNC(=O)CNC(=O)[C@@H](N)Cc1ccc(O)cc1)[C@@H](C)O)[C@@H](C)CC)[C@@H](C)O)C(=O)N[C@H](C(=O)N[C@@H](CC(C)C)C(=O)N[C@@H](CCCCN)C(=O)N[C@@H](CC(N)=O)C(=O)N[C@@H](CCC(=O)O)C(=O)N[C@@H](CCC(N)=O)C(=O)O)[C@@H](C)O [Compound (I), H-Tyr-Gly-Gly-Phe-Met-Lys-Pro-Tyr-Thr-Lys-Gln-Ser-His-Lys-Pro-Leu-Ile-Thr- Leu-Leu-Lys-His-Ile-Thr-Leu-Lys-Asn-Glu-Gln-OH] (H-YGGFMKPYTKQSHKPLITLLKHITLKNEQ-OH)
binding strength with the opiate receptor (brain) relative to human beta-endorphin (opiate receptor (brain); with the addition of sodium): about 3.05 times | binding activity relative to morphine (opiate receptor (brain); with the addition of sodium): about 3.74 times | binding strength with the opiate receptor (brain) relative to human beta-endorphin (opiate receptor (brain); without the addition of sodium): about 2.71 times | binding activity relative to morphine (opiate receptor (brain); without the addition of sodium): about 4.6 times | analgesic action [1]: excellent analgesic action | toxicity [2]: very low toxicity

CC[C@H](C)[C@H](NC(=O)[C@H](Cc1c[nH]cn1)NC(=O)[C@H](CCCCN)NC(=O)[C@H](CC(C)C)NC(=O)[C@H](CC(C)C)NC(=O)[C@@H](NC(=O)[C@@H](NC(=O)[C@H](CC(C)C)NC(=O)[C@@H]1CCCN1C(=O)[C@H](CCCCN)NC(=O)[C@H](Cc1c[nH]cn1)NC(=O)[C@H](CO)NC(=O)[C@H](CCC(N)=O)NC(=O)[C@H](CCCCN)NC(=O)[C@@H](NC(=O)[C@H](Cc1ccc(O)cc1)NC(=O)[C@@H]1CCCN1C(=O)[C@H](CCCCN)NC(=O)[C@H](CCSC)NC(=O)[C@H](Cc1ccccc1)NC(=O)CNC(=O)CNC(=O)[C@H](Cc1ccc(O)cc1)NC(C)=O)[C@@H](C)O)[C@@H](C)CC)[C@@H](C)O)C(=O)N[C@H](C(=O)N[C@@H](CC(C)C)C(=O)N[C@@H](CCCCN)C(=O)N[C@@H](CC(N)=O)C(=O)N[C@@H](CCC(=O)O)C(=O)N[C@@H](CCC(N)=O)C(=O)O)[C@@H](C)O [salmon endorphin, reference compound] (Ac-YGGFMKPYTKQSHKPLITLLKHITLKNEQ-OH)
binding to the opiate receptor (opiate receptor (brain); result in words): in no way binds to the opiate receptor

beta-endorphin: brain peptide in mammals, a particularly important physiological peptide among the endorphins (YGGFMTSEKSQTPLVTLFKNAIIKNAYKKGE; Beta-endorphin; UniProt P01189 237-267, looked up)
analgesic effect [3]: exerts an analgesic effect | analgesic effect [4]: exerts an analgesic effect
